Experimental data reported in US9493500B2, “Fluorinated pyrimidine analogs and methods of use thereof” (priority 2012, dated 2016).
pIC50: −log10 of the molar value. Like-named read-outs stand apart in the source and are kept apart here.

Key:
[1] = following subcutaneous administration; cited from earlier work
[2] = target: cytidine deaminase (Homo sapiens, UniProt P32320); settings: deamination of the base to inactive uracil; cited from earlier work
[3] = test system: myelodysplatic syndrome (MDS); settings: treated patients with MDS; cited from earlier work
[4] = test system: DNA methyltransferase (DNMT); experiment: In vitro DNA methyltransferase inhibition in HCT-116 cells (EpiQuick kit); assay type: cell-based
Description: The assay was performed using the EpiQuick DNA Methyltransferase Activity/Inhibition Assay Kit (Epigentek, Brooklyn, N.Y.). The […] cells were incubated with 1 μM and 10 μM concentrations of each drug for a period of 24 hours.

[5] = test system: various tumor cells lines, both solid and hematologic; experiment: Cytotoxicity against various tumor cell lines (overall comparison); assay type: cell-based
[6] = test system: MDA-MB-231; experiment: In vitro cytotoxicity (GI50), breast cancer cell line; assay type: cell-based
Description: (§1) The in vitro cytotoxicity was measured in the following cell lines: NCI-H460 (ATCC #HTB-177) (non-small cell lung), HCT-116 (ATCC #CCL-247) (colorectal), HL-60 (ATCC #CCL-240) (leukemia), and MDA-MB-231 (ATCC #HTB-26) (breast).

[7] = test system: NCI-H460; experiment: In vitro cytotoxicity (GI50), non-small cell lung cell line; assay type: cell-based
Description: as §1

[8] = test system: HCT-116; experiment: In vitro cytotoxicity (GI50), colon/colorectal cell line; assay type: cell-based
Description: as §1

[9] = test system: L1210; experiment: In vitro cytotoxicity, leukemia cell line L1210; settings: read-out: In vitro cytotoxicity, Leukemia L1210; Table 3
[10] = test system: various tumor cells lines, both solid and hematologic; settings: available data; cited from earlier work
[11] = test system: L1210

Chain of cytidine deaminase (P32320 whole entry, species assumed): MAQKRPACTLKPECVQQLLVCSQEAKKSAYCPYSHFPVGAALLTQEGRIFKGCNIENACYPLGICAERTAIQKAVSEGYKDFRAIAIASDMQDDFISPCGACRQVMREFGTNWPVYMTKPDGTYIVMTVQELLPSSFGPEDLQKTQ

In the case of `Nc1ncn([C@H]2C[C@H](O)[C@@H](CO)O2)c(=O)n1` [Decitabine, 5-azadeoxycytidine], the Half-life [1] is given as 30 min, the “Substrate for cytidine deaminase” value [2] is given as “good substrates for cytidine deaminase” and the “Remissions or clinical improvements” value [3] is given as “remissions or clinical improvements in more than half of the treated patients”.
In the case of `Nc1ncn([C@@H]2O[C@H](CO)[C@@H](O)[C@H]2O)c(=O)n1` [Azacytidine, 5-azacytidine], the “Remissions or clinical improvements” value [3] is given as “remissions or clinical improvements in more than half of the treated patients”.
For `Nc1ncn([C@@H]2O[C@H](CO)[C@@H](O)C2(F)F)c(=O)n1` [NUC013, 2′,2′-difluoro-5-azadeoxycytidine], the “DNA methyltransferase inhibition (conclusion in words)” value [4] was “is an inhibitor of DNA methyltransferase” and the “Cytotoxicity profile (in words)” value [5] was “active against cell lines that are resistant to decitabine”.
Compound `O=c1ncccn1[C@@H]1O[C@H](CO)[C@@H](O)C1(F)F` [NUC019, 2′-deoxy-2′,2′-difluorozebularine] has a pIC50 ([6]; Table 3, read-out: In vitro cytotoxicity, Breast MDA-MB-231) of 3.78, a pIC50 ([7]; Table 3, read-out: In vitro cytotoxicity, NSCL NCI-H460) of 3.87 and a pIC50 ([8]; Table 3, read-out: In vitro cytotoxicity, Colon HCT-116) of 3.51. The pIC50 [9] was 3.49.
In the case of `NC1=NC(=O)N([C@H]2C[C@H](O)[C@@H](CO)O2)CN1` [DHADC, 5,6-dihydro-5-aza-2′-deoxycytidine], the “Cytotoxicity compared to decitabine” value [10] is listed as “lesser cytotoxicity”.
In the case of `NC1=NC(=O)N([C@@H]2O[C@H](CO)[C@@H](O)C2(F)F)CN1` [NUC014, 2′,2′-difluoro-5,6-dihydro-5-azadeoxycytidine], the “Cytotoxicity profile (in words)” value [5] was “less cytotoxic than NUC013”.
Work on `O=c1ncccn1[C@H]1O[C@H](CO)[C@@H](O)C1(F)F` [NUC020] yielded a pIC50 [6] of 3.67, a pIC50 [7] of 3.87 and a pIC50 [8] of 3.55. The pIC50 [11] was 3.46.
